Data: ChEMBL document CHEMBL1649501, “Integration of pharmacokinetic and pharmacodynamic indices of orbifloxacin in beagle dogs after a single intravenous and intramuscular administration” (Antimicrob Agents Chemother, 2009)
≈ marks a conversion by molar mass, not a printed value.

Columns and labels:
[1] = system: Escherichia coli; assay: Antibacterial activity against Escherichia coli after 30 hrs by broth microdilution method; format: functional, organism-based
[2] = Ratio of AUC (0 to 24 hrs) to MIC in Beagle dog infected with Staphylococcus aureus at 2.5 mg/kg, im; format: functional; conditions: route intramuscular
[3] = Volume of distribution at steady state in Beagle dog at 2.5 mg/kg, iv; format: ADME, organism-based, Canis lupus familiaris; parameters: dose 2.5 mg/kg, route intravenous; conditions: in vivo
[4] = Ratio of AUC (0 to 24 hrs) to MIC for bacteriostatic action in Beagle dog infected with Staphylococcus intermedius clinical isolate at 2.5 mg/kg, im; format: functional; conditions: route intramuscular
[5] = T>MIC in Beagle dog infected with Escherichia coli at 2.5 mg/kg, im; format: functional; conditions: route intramuscular
[6] = system: Escherichia coli; assay: Antibacterial activity against Escherichia coli by broth microdilution method; format: functional
[7] = Bioavailability in Beagle dog at 2.5 mg/kg, im; format: ADME, organism-based, Canis lupus familiaris; conditions: in vivo
[8] = Apparent volume of distribution in Beagle dog at 2.5 mg/kg, iv; format: ADME, organism-based, Canis lupus familiaris; parameters: dose 2.5 mg/kg, route intravenous; conditions: in vivo, read-out: Vz
[9] = AUC (0 to 24 hrs) in Beagle dog at 2.5 mg/kg, im; format: ADME, organism-based, Canis lupus familiaris; parameters: time < 24 hr, dose 2.5 mg/kg, route intramuscular; conditions: plasma
[10] = Ratio of Cmax to MIC in Beagle dog infected with Staphylococcus intermedius at 2.5 mg/kg, im; format: functional; conditions: route intramuscular
[11] = system: Staphylococcus intermedius; assay: Antibacterial activity against Staphylococcus intermedius by broth microdilution method; format: functional
[12] = Ratio of AUC (0 to 24 hrs) to MIC in Beagle dog infected with Staphylococcus aureus at 2.5 mg/kg, iv; format: functional
[13] = Ratio of AUC (0 to 24 hrs) to MIC in Beagle dog infected with Proteus mirabilis at 2.5 mg/kg, iv; format: functional
[14] = T>MIC in Beagle dog infected with Proteus mirabilis at 2.5 mg/kg, im; format: functional; conditions: route intramuscular
[15] = system: Canis familiaris; assay: Mean absorption time in Beagle dog at 2.5 mg/kg, im; format: ADME, organism-based, Canis lupus familiaris; parameters: dose 2.5 mg/kg, route intramuscular; conditions: in vivo
[16] = Elimination rate constant in Beagle dog at 2.5 mg/kg, iv; format: ADME, organism-based, Canis lupus familiaris; parameters: dose 2.5 mg/kg, route intravenous; conditions: in vivo
[17] = Ratio of AUC (0 to 24 hrs) to MIC for bactericidal action in Beagle dog infected with Staphylococcus intermedius clinical isolate at 2.5 mg/kg, im; format: functional; conditions: route intramuscular
[18] = Terminal half life in Beagle dog at 2.5 mg/kg, iv; format: ADME, organism-based, Canis lupus familiaris; parameters: dose 2.5 mg/kg, route intravenous; conditions: in vivo, read-out: beta t1/2 (converted)
[19] = Ratio of AUC (0 to 24 hrs) to MIC for bacterial elimination in Beagle dog infected with Staphylococcus intermedius clinical isolate at 2.5 mg/kg, im; format: functional; conditions: route intramuscular
[20] = system: Proteus mirabilis; assay: Antibacterial activity against Proteus mirabilis after 30 hrs by broth microdilution method; format: functional, organism-based
[21] = Ratio of Cmax to MIC in Beagle dog infected with Staphylococcus aureus at 2.5 mg/kg, im; format: functional; conditions: route intramuscular
[22] = AUC (0 to 24 hrs) in Beagle dog at 2.5 mg/kg, iv; format: ADME, organism-based, Canis lupus familiaris; parameters: time < 24 hr, dose 2.5 mg/kg, route intravenous; conditions: plasma
[23] = T>MIC in Beagle dog infected with Proteus mirabilis at 2.5 mg/kg, iv; format: functional
[24] = T>MIC in Beagle dog infected with Escherichia coli at 2.5 mg/kg, iv; format: functional
[25] = Ratio of Cmax to MIC in Beagle dog infected with Proteus mirabilis at 2.5 mg/kg, im; format: functional; conditions: route intramuscular
[26] = T>MIC in Beagle dog infected with Staphylococcus aureus at 2.5 mg/kg, im; format: functional; conditions: route intramuscular
[27] = Cmax in Beagle dog at 2.5 mg/kg, im; format: ADME, organism-based, Canis lupus familiaris; parameters: dose 2.5 mg/kg, route intramuscular; conditions: in vivo
[28] = AUC (0 to infinity) in Beagle dog at 2.5 mg/kg, im; format: ADME, organism-based, Canis lupus familiaris; parameters: time infinity, dose 2.5 mg/kg, route intramuscular; conditions: plasma
[29] = system: Proteus mirabilis; assay: Antibacterial activity against Proteus mirabilis by broth microdilution method; format: functional
[30] = Tmax in Beagle dog at 2.5 mg/kg, im; format: ADME, organism-based, Canis lupus familiaris; parameters: dose 2.5 mg/kg, route intramuscular; conditions: in vivo
[31] = Mean residence time (0 to 24 hrs) in Beagle dog at 2.5 mg/kg, iv; format: ADME, organism-based, Canis lupus familiaris; parameters: dose 2.5 mg/kg, route intravenous; conditions: in vivo
[32] = Clearance in Beagle dog at 2.5 mg/kg, iv; format: ADME, organism-based, Canis lupus familiaris; parameters: dose 2.5 mg/kg, route intravenous; conditions: in vivo
[33] = system: Staphylococcus aureus; assay: Antibacterial activity against Staphylococcus aureus ATCC 29213 by broth microdilution method; format: functional
[34] = system: Staphylococcus intermedius; assay: Antibacterial activity against Staphylococcus intermedius clinical isolate infected in Beagle dog assessed as bacterial load at 2.5 mg/kg, im after 24 hrs; format: functional; conditions: route intramuscular
[35] = Terminal half life in Beagle dog at 2.5 mg/kg, im; format: ADME, organism-based, Canis lupus familiaris; parameters: dose 2.5 mg/kg, route intramuscular; conditions: in vivo, read-out: beta t1/2 (converted)
[36] = Mean residence time (0 to infinity) in Beagle dog at 2.5 mg/kg, iv; format: ADME, organism-based, Canis lupus familiaris; parameters: dose 2.5 mg/kg, route intravenous; conditions: in vivo
[37] = Ratio of Cmax to MIC in Beagle dog infected with Escherichia coli at 2.5 mg/kg, im; format: functional; conditions: route intramuscular
[38] = Ratio of AUC (0 to 24 hrs) to MIC in Beagle dog infected with Escherichia coli at 2.5 mg/kg, iv; format: functional
[39] = AUC (0 to infinity) in Beagle dog at 2.5 mg/kg, iv; format: ADME, organism-based, Canis lupus familiaris; parameters: time infinity, dose 2.5 mg/kg, route intravenous; conditions: plasma
[40] = T>MIC in Beagle dog infected with Staphylococcus intermedius at 2.5 mg/kg, im; format: functional; conditions: route intramuscular
[41] = system: Staphylococcus aureus; assay: Antibacterial activity against Staphylococcus aureus after 30 hrs by broth microdilution method; format: functional, organism-based
[42] = Mean residence time (0 to 24 hrs) in Beagle dog at 2.5 mg/kg, im; format: ADME, organism-based, Canis lupus familiaris; parameters: dose 2.5 mg/kg, route intramuscular; conditions: in vivo
[43] = Ratio of AUC (0 to 24 hrs) to MIC in Beagle dog infected with Staphylococcus intermedius at 2.5 mg/kg, im; format: functional; conditions: route intramuscular
[44] = Elimination rate constant in Beagle dog at 2.5 mg/kg, im; format: ADME, organism-based, Canis lupus familiaris; parameters: dose 2.5 mg/kg, route intramuscular; conditions: in vivo
[45] = system: Staphylococcus intermedius; assay: Antibacterial activity against Staphylococcus intermedius after 30 hrs by broth microdilution method; format: functional, organism-based
[46] = T>MIC in Beagle dog infected with Staphylococcus intermedius at 2.5 mg/kg, iv; format: functional
[47] = T>MIC in Beagle dog infected with Staphylococcus aureus at 2.5 mg/kg, iv; format: functional
[48] = Ratio of AUC (0 to 24 hrs) to MIC in Beagle dog infected with Staphylococcus intermedius at 2.5 mg/kg, iv; format: functional
[49] = Mean residence time (0 to infinity) in Beagle dog at 2.5 mg/kg, im; format: ADME, organism-based, Canis lupus familiaris; parameters: dose 2.5 mg/kg, route intramuscular; conditions: in vivo
[50] = Ratio of AUC (0 to 24 hrs) to MIC50 in Beagle dog infected with Staphylococcus intermedius clinical isolate at 2.5 mg/kg, im; format: functional; conditions: route intramuscular
[51] = Ratio of AUC (0 to 24 hrs) to MIC in Beagle dog infected with Escherichia coli at 2.5 mg/kg, im; format: functional; conditions: route intramuscular
[52] = system: Staphylococcus aureus; assay: Antibacterial activity against Staphylococcus aureus by broth microdilution method; format: functional
[53] = Ratio of AUC (0 to 24 hrs) to MIC in Beagle dog infected with Proteus mirabilis at 2.5 mg/kg, im; format: functional; conditions: route intramuscular

RatioAUC/MIC [2]: 31.1 | Vd [3]: 1.61 L/kg | RatioAUC/MIC [4]: 26.7 | T>MIC [5]: 21.3 h | MIC [6]: 0.06 µg/mL (≈ 0.152 µM) | bioavailability [7]: 100% | Vd [8]: 1.95 L/kg | AUC(0-t) at 24 h [9]: 8370 ng·h/mL | MIC [11]: 0.25 µg/mL (≈ 0.632 µM) | RatioAUC/MIC [12]: 32.3 | RatioAUC/MIC [13]: 16.1 | T>MIC [14]: 6.5 h | MAT [15]: 0.51 h | k el [16]: 4.72e-05 s⁻¹ | half-life [18]: 4.23 h | RatioAUC/MIC [19]: 40 | AUC(0-t) at 24 h [22]: 8070 ng·h/mL | T>MIC [23]: 5.6 h | T>MIC [24]: 21.1 h | T>MIC [26]: 9.15 h | Cmax [27]: 1150 ng/mL | AUC(0-inf) [28]: 8490 ng·h/mL | MIC [29]: 0.5 µg/mL (≈ 1.26 µM) | Tmax [30]: 1.15 h | MRT last [31]: 4.71 h | clearance [32]: 5.17 mL/min/kg | MIC [33]: 0.5 µg/mL (≈ 1.26 µM) | half-life [35]: 3.95 h | MRT inf [36]: 5.13 h | RatioAUC/MIC [38]: 134.6 | AUC(0-inf) [39]: 8210 ng·h/mL | T>MIC [40]: 9.15 h | MRT last [42]: 5.31 h | RatioAUC/MIC [43]: 31.1 | k el [44]: 4.72e-05 s⁻¹ | T>MIC [46]: 8.75 h | T>MIC [47]: 8.75 h | RatioAUC/MIC [48]: 32.3 | MRT inf [49]: 5.69 h | RatioAUC/MIC [51]: 129.8 | MIC [52]: 0.25 µg/mL (≈ 0.632 µM) | RatioAUC/MIC [53]: 15.5
SMILES: C[C@@H]1CN(c2c(F)c(F)c3c(=O)c(C(=O)O)cn(C4CC4)c3c2F)C[C@H](C)N1 [ORBIFLOXACIN]
Activity [1]: Dose-dependent effect | Ratio [10]: 4.61 | RatioAUC/MIC [17]: 31.8 | Activity [20]: Dose-dependent effect | Ratio [21]: 4.61 | Ratio [25]: 2.3 | CFU/ml [34]: 2.06 | Ratio [37]: 19.1 | Activity [41]: Dose-dependent effect | Activity [45]: Dose-dependent effect | Ratio [50]: 29
